Source: PubChem BioAssay (NCI)
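Method: 48-hour compound exposure of cells in 96-well plates, five concentrations, linear interpolation of endpoints. TGI denotes the concentration required for complete inhibition of growth.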

What was measured:
Assay in all cases: growth of human tumour cells (NCI), 48 h
SK-OV-3 ovarian = tested on: SK-OV-3 ovarian
SN12C renal = tested on: SN12C renal
TK-10 renal = tested on: TK-10 renal
CAKI-1 renal = tested on: CAKI-1 renal
SW-620 colon = tested on: SW-620 colon
SK-MEL-5 melanoma = tested on: SK-MEL-5 melanoma
MDA-N = tested on: MDA-N
MDA-MB-435 = tested on: MDA-MB-435
NCI-H522 lung = tested on: NCI-H522 lung
SF-295 CNS = tested on: SF-295 CNS
SNB-75 CNS = tested on: SNB-75 CNS
UACC-257 melanoma = tested on: UACC-257 melanoma
HS 578T breast = tested on: HS 578T breast
SF-268 CNS = tested on: SF-268 CNS
OVCAR-8 ovarian = tested on: OVCAR-8 ovarian
MDA-MB-231 breast = tested on: MDA-MB-231 breast
SF-539 CNS = tested on: SF-539 CNS
PC-3 prostate = tested on: PC-3 prostate
NCI/ADR-RES ovarian = tested on: NCI/ADR-RES ovarian
CCRF-CEM leukemia = tested on: CCRF-CEM leukemia
HCT-116 colon = tested on: HCT-116 colon
OVCAR-5 ovarian = tested on: OVCAR-5 ovarian
OVCAR-4 ovarian = tested on: OVCAR-4 ovarian
HCT-15 colon = tested on: HCT-15 colon
HOP-92 NSCLC = tested on: HOP-92 NSCLC
HOP-62 NSCLC = tested on: HOP-62 NSCLC
UO-31 renal = tested on: UO-31 renal
RXF 393 renal = tested on: RXF 393 renal
MCF7 breast = tested on: MCF7 breast
K-562 leukemia = tested on: K-562 leukemia
SK-MEL-2 melanoma = tested on: SK-MEL-2 melanoma
LOX IMVI melanoma = tested on: LOX IMVI melanoma
SNB-19 CNS = tested on: SNB-19 CNS
SK-MEL-28 melanoma = tested on: SK-MEL-28 melanoma
ACHN renal = tested on: ACHN renal
T-47D breast = tested on: T-47D breast
UACC-62 melanoma = tested on: UACC-62 melanoma
DU-145 prostate = tested on: DU-145 prostate
HL-60(TB) leukemia = tested on: HL-60(TB) leukemia
NCI-H460 lung = tested on: NCI-H460 lung
EKVX NSCLC = tested on: EKVX NSCLC
MOLT-4 leukemia = tested on: MOLT-4 leukemia
OVCAR-3 ovarian = tested on: OVCAR-3 ovarian
U251 CNS = tested on: U251 CNS
A549 NSCLC = tested on: A549 NSCLC
BT-549 breast = tested on: BT-549 breast
IGROV1 ovarian = tested on: IGROV1 ovarian
RPMI-8226 leukemia = tested on: RPMI-8226 leukemia
COLO 205 colon = tested on: COLO 205 colon
KM12 colon = tested on: KM12 colon
NCI-H23 lung = tested on: NCI-H23 lung
NCI-H226 lung = tested on: NCI-H226 lung
HT29 colon = tested on: HT29 colon
M14 melanoma = tested on: M14 melanoma
MALME-3M melanoma = tested on: MALME-3M melanoma
HCC-2998 colon = tested on: HCC-2998 colon
786-0 renal = tested on: 786-0 renal
A498 renal = tested on: A498 renal

## COc1nc(Cl)nc(N[C@H](C)c2c3ccccc3cc3ccccc23)n1
SK-OV-3 ovarian
  TGI: 29.3 µM
SN12C renal
  TGI: 17.8 µM
TK-10 renal
  TGI: 14.8 µM
CAKI-1 renal
  TGI: 25.9 µM
SW-620 colon
  TGI: 28.8 µM
SK-MEL-5 melanoma
  TGI: 19.5 µM
MDA-N
  TGI: 8.99 µM
MDA-MB-435
  TGI: 15.1 µM
NCI-H522 lung
  TGI: 21.3 µM
SF-295 CNS
  TGI: 31 µM
SNB-75 CNS
  TGI: 76.4 µM
UACC-257 melanoma
  TGI: 30.2 µM
HS 578T breast
  TGI: 21.9 µM
SF-268 CNS
  TGI: 39.7 µM
OVCAR-8 ovarian
  TGI: 28.4 µM
MDA-MB-231 breast
  TGI: 34.4 µM
SF-539 CNS
  TGI: 33.8 µM
PC-3 prostate
  TGI: 31.5 µM
NCI/ADR-RES ovarian
  TGI: 31.3 µM
CCRF-CEM leukemia
  TGI: 29.6 µM
HCT-116 colon
  TGI: 24.8 µM
OVCAR-5 ovarian
  TGI: 31.1 µM
OVCAR-4 ovarian
  TGI: 13.7 µM
HCT-15 colon
  TGI: 27 µM
HOP-92 NSCLC
  TGI: 46.4 µM
HOP-62 NSCLC
  TGI: 31.5 µM
UO-31 renal
  TGI: 31.8 µM
RXF 393 renal
  TGI: 25.9 µM
MCF7 breast
  TGI: 29.2 µM
K-562 leukemia
  TGI: 97.8 µM
SK-MEL-2 melanoma
  TGI: 31.6 µM
LOX IMVI melanoma
  TGI: 33.2 µM
SNB-19 CNS
  TGI: 31.1 µM
SK-MEL-28 melanoma
  TGI: 10.2 µM
ACHN renal
  TGI: 31.7 µM
T-47D breast
  TGI: 9.08 µM
UACC-62 melanoma
  TGI: 13.8 µM
DU-145 prostate
  TGI: 25 µM
HL-60(TB) leukemia
  TGI: 58.8 µM
NCI-H460 lung
  TGI: 33.9 µM
EKVX NSCLC
  TGI: 29.6 µM
MOLT-4 leukemia
  TGI: 40.1 µM
OVCAR-3 ovarian
  TGI: 23.5 µM
U251 CNS
  TGI: 31.9 µM
A549 NSCLC
  TGI: 96.2 µM
BT-549 breast
  TGI: 32.5 µM
IGROV1 ovarian
  TGI: 20.5 µM
RPMI-8226 leukemia
  TGI: 21.1 µM
COLO 205 colon
  TGI: 28.1 µM
KM12 colon
  TGI: 26.9 µM
NCI-H23 lung
  TGI: 31.8 µM
NCI-H226 lung
  TGI: 31.6 µM
HT29 colon
  TGI: 31.3 µM

## CSC(SC)=C(C(=O)c1ccc(Cl)cc1)n1c(=O)sc2cc(Br)ccc21
SK-OV-3 ovarian
  TGI: > 100 µM
SN12C renal
  TGI: > 100 µM
TK-10 renal
  TGI: > 100 µM
M14 melanoma
  TGI: > 100 µM
CAKI-1 renal
  TGI: > 100 µM
SW-620 colon
  TGI: > 100 µM
SK-MEL-5 melanoma
  TGI: > 100 µM
MDA-N
  TGI: > 100 µM
MALME-3M melanoma
  TGI: > 100 µM
HCC-2998 colon
  TGI: > 100 µM
MDA-MB-435
  TGI: > 100 µM
NCI-H522 lung
  TGI: > 100 µM
SF-295 CNS
  TGI: > 100 µM
UACC-257 melanoma
  TGI: > 100 µM
HS 578T breast
  TGI: > 100 µM
SF-268 CNS
  TGI: > 100 µM
OVCAR-8 ovarian
  TGI: > 100 µM
MDA-MB-231 breast
  TGI: > 100 µM
SF-539 CNS
  TGI: > 100 µM
PC-3 prostate
  TGI: > 100 µM
NCI/ADR-RES ovarian
  TGI: > 100 µM
CCRF-CEM leukemia
  TGI: > 100 µM
HCT-116 colon
  TGI: > 100 µM
OVCAR-5 ovarian
  TGI: > 100 µM
OVCAR-4 ovarian
  TGI: > 100 µM
HCT-15 colon
  TGI: > 100 µM
HOP-92 NSCLC
  TGI: > 100 µM
HOP-62 NSCLC
  TGI: > 100 µM
UO-31 renal
  TGI: > 100 µM
RXF 393 renal
  TGI: > 100 µM
MCF7 breast
  TGI: > 100 µM
K-562 leukemia
  TGI: > 100 µM
SK-MEL-2 melanoma
  TGI: > 100 µM
LOX IMVI melanoma
  TGI: > 100 µM
SNB-19 CNS
  TGI: > 100 µM
SK-MEL-28 melanoma
  TGI: > 100 µM
ACHN renal
  TGI: > 100 µM
T-47D breast
  TGI: > 100 µM
786-0 renal
  TGI: > 100 µM
UACC-62 melanoma
  TGI: > 100 µM
DU-145 prostate
  TGI: > 100 µM
HL-60(TB) leukemia
  TGI: > 100 µM
NCI-H460 lung
  TGI: > 100 µM
A498 renal
  TGI: > 100 µM
EKVX NSCLC
  TGI: > 100 µM
MOLT-4 leukemia
  TGI: > 100 µM
OVCAR-3 ovarian
  TGI: > 100 µM
U251 CNS
  TGI: > 100 µM
A549 NSCLC
  TGI: > 100 µM
IGROV1 ovarian
  TGI: > 100 µM
RPMI-8226 leukemia
  TGI: > 100 µM
COLO 205 colon
  TGI: > 100 µM
KM12 colon
  TGI: > 100 µM
NCI-H23 lung
  TGI: > 100 µM
NCI-H226 lung
  TGI: > 100 µM
HT29 colon
  TGI: > 100 µM
